Patent US20250346885A1, “SYSTEMS AND METHODS FOR TARGETED CONTINUOUS GENOME MUTAGENESIS” (The Broad Institute, Inc., priority 2023, published 2025)

Columns and labels:
HEK3, TNF, and IL6 loci = experiment: HACE editing rate and range with helicase and nickase variants (1000 bp window, local rate in 100 bp bins); format: cell-based, human; settings: nCas9 D10A versus nCas9 H840A
Description: In one embodiment, HACE constructs were tested with different helicase enzymes.
The editing range of different HE constructs was then characterized. For each helicase, nickase, and loci combination, the respective HE, nCas9, and sgRNA combination was transfected into HEK293FT cells, genomic DNA was harvested after three days, and then a 1000 bp window was amplified by PCR for sequencing. The target-strand and non-target strand nickase had similar long range editing performance (FIG. 5C-D, FIG. 10B-C). […] Thus, the nCas9 binding and DNA-sgRNA duplex might obstruct the helicase loading on the non-nicked single-stranded DNA.
In another embodiment, the local average mutation rate was calculated in 100 bp bins for each genomic loci (FIG. 10D). […]
For long amplicon (˜2000 bp) sequencing, the targeted region was amplified using Phusion U Hot Start PCR master mix in a 20 μL reaction. […] The concentration of each sample was measured by Qubit (Thermo Fisher Scientific). […] Sequencing was performed on a NextSeq (Illumina) with paired-end reads (read1,100 bp; index1, 8 bp; index2, 8 bp; read2, 100 bp).
To calculate the mutation rate, it was filtered for base positions with a sequencing coverage of at least 10,000. […] The average G>A editing rate was calculated by extracting all positions where “G” was the reference base, then taking the average of the per base G>A editing rate. […]

HEK293FT cells = experiment: CellTiter-Glo cell viability after transfection of HACE constructs; format: cell-based, human
Description: The effects of different HACE constructs on cell viability were then quantified. To do so, the cell viability was quantified using a luciferase-based ATP-assay (CellTiter-Glo) across various helicase constructs both with and without deaminase along with a loci-targeting sgRNA and nCas9 (FIG. 11A).
Cell viability was measured using the CellTiter-Glo Luminescent Cell Viability Assay (Promega) following the manufacturer's protocols. Briefly, HEK293FT cells were seeded at a density of 10,000 cells per 100 μL per well in a 96-well plate in biological triplicates. The following day, cells were transfected with respective HACE plasmids according to the above protocol. Cell viability was measured 72 h after transfection. Luminescence readings were performed using a SpectraMax M5 (Molecular Devices) plate reader.

double-stranded DNA = settings: average base pairs unwound in a single binding event; cited from earlier work

BLM: human helicase; in b329, b331 and b335 the HE constructed with it
preference of target and non-target strand nickase (HEK3, TNF, and IL6 loci): prefer both nickase variants equally | cell viability (CellTiter-Glo) (HEK293FT cells): did not result in a significant decrease in cell viability | processivity range (double-stranded DNA): over 200 base pairs
